The values that follow come from patent US11846639B2, “Ligand discovery for T cell receptors” (priority 2014, dated 2023).

In the experiment the test system is AGA1 T cell receptor. Briefly: Selection of yeast-displayed HLA-B5703 peptide library with AGA1 TCR, deep sequencing read counts. The experiment is classed as binding. The following applies: for number of times the peptide was represented, Rd1: after round 1 of selection with AGA1 TCR; for number of times the peptide was represented, Rd2: after round 2 of selection with AGA1 TCR; for number of times the peptide was represented, Rd3: after round 3 of selection with AGA1 TCR; for number of times the peptide was represented, Rd4: after round 4 of selection with AGA1 TCR; for number of times the peptide was represented, Naïve: naïve library before selection. The method, then:
Selection of pMHC libraries To maximize sensitivity of selections, all described selection steps were conducted at 4° using cold buffers, and refrigerated centrifuges. All spins were 5,000×g for 1 minute. Before each round of selection, a small sample of yeast (˜1×10^6 cells) were stained with an anti-epitope tag antibody. For the first round of selection, ˜2×10^9 yeast were washed once with PBS+0.5% BSA and 1 mM EDTA (PBE buffer) and then cleared with unloaded Streptavidin Microbeads (250 uL beads in 5 mL PBE) (Miltenyi, 130-048-101) to eliminate any nonspecifically binding yeast clones by incubating 1 hr at 4° with gentle rotation. The yeast were then spun down, resuspended in 5 mL PBE without a wash, and passed through a Miltenyi LS column. […] TCR-binding yeast were then selected via an LS column, washed in SDCAA, and then re-cultured in SDCAA, pH 4.5 at 30° C. overnight. Yeast were re-induced upon reaching OD>2. For each round of selection, at least 10-fold more yeast was used than recovered from the previous round to ensure complete coverage of all selected yeast. Second and third rounds of selection were conducted in the same manner, but with reduced volumes (50 µL of beads in 500 LL PBE). Progress of selections was monitored by counting of cells selected to TCR-bound streptavidin beads as compared to streptavidin beads alone via an Accuri C6 flow cytometer. […] For the final round of selection (conducted when the yeast count enriched by TCR loaded beads was higher than background, usually after 3 rounds), the libraries were stained with 500 nM streptavidin-TCR tetramer as described above, washed 3× with PBE, then incubated with 50 uL anti-Alexa647 Microbeads (Miltenyi, 130-091-395) in 450 µL PBE for 20 minutes. The yeast were washed a final time and passed through a Miltenyi LS column. Enriched yeast were then plated on SDCAA plates for characterization of individual colonies. Individual yeast clones were then screened for tetramer staining as described above. Plasmids containing the selected pMHC were isolated from positive clones via yeast miniprep (Zymoprep II kit, Zymo Research) and sequenced (Sequetech).
Deep sequencing of selection libraries. Pooled plasmids from 5×10^7 yeast from each round of selection were isolated via yeast miniprep (Zymoprep II kit, Zymo Research) and used as PCR template to prepare Illumina samples. Amplicon libraries were designed as follows: (Illumina P5-Truseq read 1-(N8)-Barcode-pMHC-(N8)-Truseq read 2-IlluminaP7). N8 was added immediately after both sequencing primers to generate diversity for low complexity sequencing reads. The adapter and barcode sequences were appended via nested 25-round cycles of PCR of the purified plasmids using Phusion polymerase (NEB). Primers were proximal to the peptide on the pMHC, annealing to the Aga2p leader sequence (5′ end) and MHC β1 domain (3′ end) to ensure high quality sequence reads of the peptide with double coverage. Final PCR products were run on a high percentage agarose gel and purified via gel extraction. PCR products were then quantitated via nanodrop, normalized for each barcoded round of selection to be equally represented, doped with 5-50% PhiX DNA to ensure sufficient sequence diversity for high quality sequence reads, and run on an Illumina MiSeq with 2×150 nt Paired End reads. The initial deep sequencing run, for the 2B4-I-E^k selections, was conducted with 1×150 nt Single End reads. When the sequencing data was analyzed as described below, we saw no significant difference in data quality between single and paired-end reads (as judged by comparing the results for 226/5cc7 when analyzed as single reads vs. paired-end reads). Deep sequencing was conducted at the Stanford Stem Cell Institute Genome Center.
The library was expressed and screened as described above in Example 1, with the AGA1 T cell receptor.
The top 20 peptides after round 3 has the sequences shown below in Table 3. […]

Regarding “RSFYPEIREYW [HLA-B5703 library peptide selected with AGA1 TCR]”, the “number of times the peptide was represented, Rd1” value (“number … Rd1” below) stood at 19; the “number of times the peptide was represented, Rd2” value (“number … Rd2” for short) was 14782; the “number of times the peptide was represented, Rd3” value (from here on “number … Rd3”) came to 119258; the “number of times the peptide was represented, Rd4” value (from here on “number … Rd4”) was 48648. Further, the “number of times the peptide was represented, Naïve” value (from here on “number … Naïve”) came out at 7.
“KSLAPEVRDLF [HLA-B5703 library peptide selected with AGA1 TCR]”: the “number … Rd1” value was 8; the “number … Rd2” value was 6502; the “number … Rd3” value is on record as 34865; the “number … Rd4” value turned out to be 22054. In addition, the “number … Naïve” value came out at 0.
Take “SSFSPELRMRW [HLA-B5703 library peptide selected with AGA1 TCR]”: the “number … Rd1” value was 10; the “number … Rd2” value stood at 14335; the “number … Rd3” value is reported as 98338; the “number … Rd4” value is given as 48729. In addition, the “number … Naïve” value was 3.
As to “YSFKPELKEIF [HLA-B5703 library peptide selected with AGA1 TCR]”, the “number … Rd1” value is listed as 5; the “number … Rd2” value is given as 5648; the “number … Rd3” value is reported as 28641; the “number … Rd4” value was 20312. The “number … Naïve” value was found to be 0.
Regarding “GSLAPEIRMYW [HLA-B5703 library peptide selected with AGA1 TCR]”, the “number … Rd1” value came to 11; the “number … Rd2” value amounted to 3108; the “number … Rd3” value was 23178; the “number … Rd4” value is on record as 10848. Besides, the “number … Naïve” value was determined as 9.
For the sequence “RSFVPEIGMGF [HLA-B5703 library peptide selected with AGA1 TCR]”, the “number … Rd1” value stood at 18; the “number … Rd2” value came to 20370; the “number … Rd3” value worked out at 22329; the “number … Rd4” value worked out at 65722. The “number … Naïve” value stood at 8.
On to “KSFVPELKPAF [HLA-B5703 library peptide selected with AGA1 TCR]”, for which the “number … Rd1” value is on record as 36; the “number … Rd2” value is 37327; the “number … Rd3” value was 157329; the “number … Rd4” value was 120443. Besides, the “number … Naïve” value is reported as 2.
“SALRPEIRLLW [HLA-B5703 library peptide selected with AGA1 TCR]”: the “number … Rd1” value is 50; the “number … Rd2” value is 28840; the “number … Rd3” value is on record as 21235; the “number … Rd4” value is 70740. Besides, the “number … Naïve” value stood at 1.
Regarding “NSVKPEIRPVW [HLA-B5703 library peptide selected with AGA1 TCR]”, the “number … Rd1” value came out at 10; the “number … Rd2” value is given as 10086; the “number … Rd3” value was determined as 33679; the “number … Rd4” value was 32818. For the same sequence, the “number … Naïve” value came to 6.
“NSLKPEIPDYF [HLA-B5703 library peptide selected with AGA1 TCR]”: the “number … Rd1” value is reported as 47; the “number … Rd2” value was 48656; the “number … Rd3” value is 268475; the “number … Rd4” value is 171826. For the same sequence, the “number … Naïve” value came out at 11.
